Laboratory results taken from US6936569B2, “Compositions and methods for protecting cultivated plants from herbicidal injury” (priority 1998, dated 2005).
Like-named read-outs stand apart in the source and are kept apart here.

Assays:
[1] = test system: CHEAL - common lambsquarter, Chenopodium album L.; assay: 1998 field trial: weed control, common lambsquarters; assay type: in vivo; conditions: Table 8: field, 60 DAP
Experimental: (§1) Conventional tillage experiments were conducted in 1998 to evaluate the influence of SMS and AFS-MTMS, on corn tolerance and weed control from postemergence applications of isoxaflutole alone and in tank-mixture with metolachlor/benoxacor. Experiments were conducted at the Michigan State University Crop and Soil Science Research Farm at East Lansing, Mich. on Capac sandy clay loam soil (fine-loamy, mixed mesic Acric Ochraqualfs) containing 3.1% organic matter with a pH of 6.3 in 1998.
Tillage consisted of moldboard plowing in the fall prior to spring disking and field cultivation. Prior to spring cultivation, 320 kg/ha of 46-0-0 fertilizer was applied broadcast. […]
(§2) Corn tolerance was evaluated 30 days after planting (DAP) by visually evaluating plants for bleaching and necrotic symptoms and also by measuring corn height (base of plant to the crown) 40 DAP. Weed control by species was visually evaluated 60 DAP. […] Corn grain yield was determined by harvesting the center two rows of each plot with a plot combine. […]
Corn (ZEAMX) in the 2-leaf or 4-leaf stage was treated with herbicidal compositions consisting of BALANCE (isoxaflutole); BALANCE and DUAL II (metolachlor and the safener benoxacor); BALANCE and SMS; BALANCE and AFS-MTMS; BALANCE, DUAL II and SMS; or BALANCE, DUAL, and AFS-MTMS. The percent injury was determined 6 DAT, 12 DAT, and 30 DAP. […]

redroot pigweed = conditions: postemergence application, isoxaflutole 105 g/ha; cited from earlier work
[2] = test system: ABUTH - velvet-leaf, Abutilon theophrasti Medicus; assay: 1998 field trial: weed control, velvetleaf; assay type: in vivo; conditions: Table 8: field, 60 DAP
Experimental: as §1
(§3) Tillage consisted of moldboard plowing in the fall prior to spring disking and field cultivation. Prior to spring cultivation, 320 kg/ha of 46-0-0 fertilizer was applied broadcast. At planting, 140 kg/ha of 6-24-24 fertilizer was applied as a banded treatment 5 cm below and 5 cm beside the corn seeds. Pioneer 37R71 corn was planted on May 11, 1998 at a rate of 62,000 seeds/ha. Each plot was 10.6 m long and consisted of 4 rows spaced 76 cm apart. […]
as §2

common ragweed = conditions: postemergence application, isoxaflutole 105 g/ha; cited from earlier work
common lambsquarters = conditions: postemergence application, isoxaflutole 105 g/ha; cited from earlier work
velvetleaf = conditions: postemergence application, isoxaflutole 105 g/ha; cited from earlier work
[3] = test system: ZEAMX - corn, Zea mays L.; assay type: in vivo; conditions: Table 8: field; for Corn Height: 40 DAP; for Grain Yield: seed weight adjusted to 15% moisture
Experimental: as §1
Tillage consisted of moldboard plowing in the fall prior to spring disking and field cultivation. Prior to spring cultivation, 320 kg/ha of 46-0-0 fertilizer was applied broadcast. At planting, 140 kg/ha of 6-24-24 fertilizer was applied as a banded treatment 5 cm below and 5 cm beside the corn seeds. Pioneer 37R71 corn was planted on May 11, 1998 at a rate of 62,000 seeds/ha. Each plot was 10.6 m long and consisted of 4 rows spaced 76 cm apart.
The tillage experiments were conducted as a randomized complete block design in a factorial arrangement with three replications. The factors consisted of herbicide application timing and herbicide treatment. Herbicides were applied when the corn was at the 2-leaf and 4-leaf stages. Corn leaf stages are described as the number of visible leaves. Herbicide treatments included isoxaflutole alone (BALANCE) at 105 g/ha and in combination with 1.1 kg/ha of metolachlor/benoxacor (DUAL II). Each of these treatments were applied either alone or with either SMS or AFS-MTMS. Each repellent was used at a rate of 0.5% v/v. Additional treatments not included in the factorial arrangement were an untreated check and a weed-free check. All herbicides were applied with a tractor mounted, compressed-air sprayer calibrated to deliver […] at 207 kPa using 8003 E flat-fan nozzles.
Corn tolerance was evaluated 30 days after planting (DAP) by visually evaluating plants for bleaching and necrotic symptoms and also by measuring corn height (base of plant to the crown) 40 DAP. Weed control by species was visually evaluated 60 DAP. Visual evaluations were based on a scale of 0 (no effect) to 100% (complete weed or crop death). Corn grain yield was determined by harvesting the center two rows of each plot with a plot combine. Seed weight was adjusted to 15% moisture.
Data were subjected to analysis of variance and means separated using Fisher's Protected LSD test at α=0.05. Data were combined over years when treatment and/or application timing by year interactions were not significant α=0.05. […] Corn height and yield results were converted to a percent of the weed-free treatment after separation.
Corn (ZEAMX) in the 2-leaf or 4-leaf stage was treated with herbicidal compositions consisting of BALANCE (isoxaflutole); BALANCE and DUAL II (metolachlor and the safener benoxacor); BALANCE and SMS; BALANCE and AFS-MTMS; BALANCE, DUAL II and SMS; or BALANCE, DUAL, and AFS-MTMS. The percent injury was determined 6 DAT, 12 DAT, and 30 DAP. As weed controls, the annual grasses (ANGR) and common lambsquarters, Chenopodium album L. (CHEAL) were treated with herbicidal compositions consisting of BALANCE; BALANCE and DUAL II; BALANCE and SMS; BALANCE and AFS-MTMS; BALANCE, DUAL II and SMS; or BALANCE, DUAL, and AFS-MTMS. The percent injury for the weed controls was determined 30 DAP.

2-leaf corn = assay: Greenhouse corn tolerance (visual injury, corn height) after isoxaflutole with or without acetochlor/MON-13900 plus adjuvants (Example 3); assay type: in vivo, Zea mays; conditions: Table 9: greenhouse, 8 DAT, isoxaflutole 105 g/ha
Experimental: This example was performed as in Example 1, except that adjuvants SMS and AFS-MTMS were added to an isoxaflutole tank-mixture that contained an acetochlor herbicide and the safener MON-13900. As in Example 1, the herbicide applications were made to 2-leaf corn, and the herbicide treatments consisted of isoxaflutole at 105 g/ha and isoxaflutole tank-mixed with 1.8 kg/ha of acetochlor/MON-13900 applied either alone or in combination with either NIS at 0.25% (v/v), SMS at 0.5% (v/v), or AFS-MTMS at 0.5% (v/v).
The herbicide compositions were applied through an 8003 E flat fan nozzle delivering 234 L/ha at a pressure of 172 kPa. Corn tolerance was evaluated 8 DAT by visually evaluating the plants for bleaching and necrotic symptoms and also by measuring corn height (base of the plant to its crown). Visual corn injury ratings were based on a scale from 0 to 100, with 0 indicating no effect and 100 indicating plant death. Corn height was measured in cm and presented as a percent of the non-treated plants, with 0 indicating total reduction in plant height and 100 indicating height equal to the non-treated plants. All experiments were conducted twice as completely randomized designs with four replications. Data were subjected to analysis of variance and means separated using Fisher's Protected LSD test at a+0.05. […]

Pioneer 3573 corn = assay: Greenhouse corn tolerance (visual injury, corn height) after postemergence isoxaflutole with or without metolachlor/benoxacor plus test adjuvants (Example 1); assay type: in vivo, Zea mays; conditions: 8 DAT
Experimental: Various silicone-based compounds were evaluated for ability to prevent herbicidal injury to the corn when used as repellent adjuvants in herbicide formulations. In previous experiments, it was shown that isoxaflutole in combination with metolachlor and benoxacor applied once corn had emerged caused significant corn injury. The basis of this severe injury is the retention and subsequent absorption of isoxaflutole in the foliar tissue of the corn plant, which is exacerbated by the metolachlor herbicide in the composition. Therefore, to address this problem, a number of silicon-based compounds, which were believed to have repellent properties, were evaluated for the ability to prevent injury to corn plants. The compounds evaluated were an aqueous solution of […] sodium methyl siliconate and 67 weight percent water (“SMS”), an aqueous solution of 35.7 weight percent N-(2-aminoethyl)-3-aminopropyltrimethoxysilane, 58.2 weight percent methyltrimethoxysilane, and 6.1 weight percent water (“AFS-MTMS”), methyltrimethoxysilane (“MTMS”), and phosphonate ester alkyl silicon (“PEAS”). These test adjuvants are commercially available from Dow Corning, Midland, Mich. The test adjuvants were applied in combination with isoxaflutole or isoxaflutole in combination with metolachlor and the safener benoxacor, and the ability of the combination to reduce plant injury by inhibiting retention and subsequent absorption of the herbicide was evaluated.
Pioneer 3573 corn seeds (Pioneer 3573, a product of Pioneer Hi-Bred International, Inc., Des Moines, Iowa) were planted 2.54 cm deep, and velvetleaf and barnyardgrass seeds were planted 1.0 cm deep in 875 ml pots containing BACCTO professional greenhouse potting mix (a product of Michigan Peat Co., Houston, Tex.). The seedlings were grown in a greenhouse maintained at 25° C.±2° C. Natural sunlight was supplemented with light from sodium vapor lamps, which provided a total midday light intensity of 1,000 μmol m^−2 s^−1 photosynthetic photon flux at plant height during a 16 hour photoperiod. Plants were watered daily and fertilized weekly with 50 ml of a water soluble fertilizer solution (400 ppm nitrogen, 400 ppm P2O5, and 400 ppm K2O). […]
The herbicide compositions were applied through an 8003 E flat fan nozzle (available from Spraying Systems Co., Wheaton, Ill.) delivering 234 L/ha at a pressure of 172 kPa (25 gallons/acre). Corn tolerance was evaluated 8 days after treatment (DAT) by visually evaluating the plants for bleaching and necrotic symptoms and also by measuring corn height (base of the plant to its crown). […] Corn height was measured in cm and presented as a percent of the non-treated plants, with 0 indicating total reduction in plant height and 100 indicating height equal to the non-treated plants. […]

[4] = test system: giant foxtail, Setaria faberi Herrm. (SETFA); assay: 1998 field trial: weed control, giant foxtail; assay type: in vivo; conditions: Table 8: field, 60 DAP
Experimental: as §1, §3, §2

[5] = test system: AMARE redroot pigweed, Amaranthus retroflexus L; assay: 1998 field trial: weed control, redroot pigweed; assay type: in vivo; conditions: Table 8: field, 60 DAP
Experimental: as §1, §3, §2

[6] = Table 3: 2-leaf corn, isoxaflutole 105 g/ha, adjuvant at the rate in the Rate column (0.5% v/v)

In the case of CS(=O)(=O)c1cc(C(F)(F)F)ccc1C(=O)c1cnoc1C1CC1 [Isoxaflutole, 5-cyclopropyl isoxazol-4-4-yl-2-mesyl-trifluoromethylphenyl ketone], the “Weed Control, CHEAL” value ([1]; 2-leaf application) is given as 95%, the “Weed Control, CHEAL” value ([1]; 4-leaf application) is given as 96% and the “control of redroot pigweed” value (redroot pigweed) is given as “greater than 90%”. The “Weed Control, ABUTH” value ([2]; 2-leaf application) was 99%, the “Weed Control, ABUTH” value ([2]; 4-leaf application) was 100% and the “control of common ragweed” value (common ragweed) was “greater than 90%”. The “control of common lambsquarters” value (common lambsquarters) was “greater than 90%”, the control of velvetleaf (velvetleaf) was “greater than 90%” and the “Corn Injury” value ([3]; 2-leaf application, 30 DAP (21 days after application), isoxaflutole 105 g/ha, metolachlor 1121 g/ha, adjuvants 0.5% v/v) was 0%. The “Corn Height” value ([3]; 2-leaf application) was 61 cm, the “Grain Yield” value ([3]; 2-leaf application) was 10420 kg/ha and the “Corn Injury” value ([3]; 4-leaf application, 30 DAP (15 days after application)) was 10%. For the same molecule, the “Corn Height” value ([3]; 4-leaf application) was 61 cm, the “Grain Yield” value ([3]; 4-leaf application) was 9995 kg/ha and the “Height, Isoxaflutole” value (2-leaf corn) was 99 % of control. The “Injury, Isoxaflutole” value (2-leaf corn; NIS 0.25% v/v, SMS or AFS-MTMS 0.5% v/v) was 0%, the “Height, Isoxaflutole” value (Pioneer 3573 corn; [6]) was 100 % of control and the “Injury, Isoxaflutole” value (Pioneer 3573 corn; [6]) was 2%. The “% injury to corn” value (Pioneer 3573 corn; greenhouse, 2-leaf corn, adjuvant rate 0%, isoxaflutole 105 g/ha, metolachlor/benoxacor 1.1 kg/ha, scale 0 no effect to 100 plant death) was 2%, the “Corn Height as a Percent of Control” value (Pioneer 3573 corn; greenhouse, adjuvant rate 0%) was 100 % of control height and the “Weed Control, SETFA” value ([4]; 2-leaf application) was 73%. The “Weed Control, SETFA” value ([4]; 4-leaf application) was 70%, the “Weed Control, AMARE” value ([5]; 2-leaf application) was 98% and the “Weed Control, AMARE” value ([5]; 4-leaf application) was 100%.
